The structures appear in SMILES notation.

Here are results for 64 molecules from a melting point compilation (Tetko et al.; mined from patent text by program, amines drawn as free bases though some values may be those of a salt).

For the molecule `Cc1c(C(=O)c2cccnc2)sc2ccc(C(=O)O)cc12`, the melting point (in general, the temperature of the solid-liquid transition) lay within 264 to 265 °C.

`CCCCCCCCCCOc1ccc2c(=O)c3cc(C(=O)O)ccc3oc2c1CCC(=O)O` showed a melting point greater than 210 °C.

Take `COc1cc(OC)cc(-c2cc(=O)c3ccc(OCC(O)CNC(C)C)cc3o2)c1` (centres undefined): the melting point is 155 to 156 °C.

The molecule `CC(=O)NC[C@@H]1C[C@H]1c1cccc2c1C[C@@H](CCCCc1ccccc1)O2` registered a melting point of 65 to 66 °C.

The molecule `Cc1ccc(N2C(=O)C(O)=C(C(=O)c3ccc(C(C)C)cc3)C2c2ccc(Cn3cnnn3)cc2)nn1` (centres undefined) yielded a melting point greater than 300 °C.

`O=c1c2nc[nH]c2nc2n1CCN2Cc1ccc(Cl)cc1` returned a melting point of 314 to 316 °C.

Molecule `OCCOCC=C(c1ccc(Cl)cc1)c1ccc(Cl)cc1` gave a melting point of 93 to 95 °C.

The molecule `CN1CC(c2ccc(S(C)(=O)=O)cc2)=C(c2ccc(F)cc2)C1=O` gave a melting point of 111 °C.

Consider `CN(C)c1c(Cl)cc(C(O)C#Cc2ccc(C(=O)O)cc2)cc1C(C)(C)C` (centres undefined), for which the melting point came to 120 °C.

As for `Clc1ccc(C2=CCN(Cc3n[nH]c4c(Cl)cccc34)CC2)cc1`, the melting point lay within 171 to 173 °C.

In turn, `CNC1NC(=O)N(C)C(=O)N1N` (centres undefined) yielded a melting point of 225 to 227 °C.

`CC(=O)Nc1nc(-c2ccc(S(=O)(=O)COC(C)=O)cc2)cs1`: the melting point lay within 237 to 238 °C.

Regarding `CC#CCOc1ccc(S(=O)(=O)NCCC(=O)NO)cc1`, the melting point is 118 to 128 °C.

In the case of `N=C(N)Nc1nc(CCCCNc2c(NCCSCc3csc(NC(=N)N)n3)c(=O)c2=O)cs1`, the melting point lay in the range of 208 to 210 °C.

Consider `O=C(O)c1cn(C2CC2)c2c(Br)c(F)c(F)cc2c1=O`, for which the melting point was in the range of 224 to 226 °C.

Molecule `CCn1c(=O)c2c(C)onc2n(C)c1=O` gave a melting point of 103 to 104 °C.

In turn, `Cc1n[nH]c2c(O)ncnc12` yielded a melting point of 340 °C.

In turn, `Cc1cc(C)cc(NC(=O)Nc2ccc(-c3c(C(N)=O)[nH]c4ccccc34)cc2)c1` gave a melting point of 168 to 170 °C.

`CCOc1nc(N2CCNCC2)nc(N2CCSCC2)c1[N+](=O)[O-]` showed a melting point of 166 to 168 °C.

Molecule `COC1=C(OC)C(=O)C(CCCCCCCCCC(=O)N[C@H](CCC(=O)O)C(N)=O)=C(C)C1=O` displayed a melting point of 136 to 137 °C.

The molecule `CS(=O)(=O)c1ccc(Cl)cc1C(=O)O` displayed a melting point of 138 to 146 °C.

Turning to `Cc1cc(C)n(-c2nc(Nc3ccccc3C)c3ccccc3n2)n1`, the melting point was in the range of 240 to 244 °C.

As for `CCCCCCCCCNC1=CC(=O)c2c(OC)ccc(OC)c2C1=O`, the melting point lay within 85 to 86 °C.

Turning to `Cc1cc(C(=O)N2CCC3(CC2)CSC2=C(O3)c3ccccc3C(=O)C2=O)c(C)o1`, the melting point lay within 234 to 235 °C.

`CCCCCCCCNc1ccc(NCCCCCCCC)c2c1C(=O)c1ccccc1C2=O` showed a melting point of 72 to 74 °C.

For `CC1=C(/C=C/S(=O)(=O)NC(C)C)[C@H](c2cccc([N+](=O)[O-])c2)C(C(=O)O[C@H](C)c2ccccc2)=C(C)N1`, the melting point lay in the range of 198 to 201 °C.

The molecule `CCc1cc(Nc2ccc(Sc3ccc(O)cc3)cc2)nc(N)n1` came in with a melting point of 181 to 184 °C.

The molecule `CC(c1ccc(F)c(Br)c1)N(O)C(N)=O` (centres undefined) registered a melting point of 125 °C.

`O=C1CC2Cc3c(Cl)cccc3C2N1` (centres undefined) yielded a melting point of 186 to 187 °C.

For `CC(=O)CC1=C(C#N)C(c2cccc3nonc23)c2c[nH]nc2N1` (centres undefined), the melting point came to 200 °C.

With `C=C(C)CC(NC=O)(C(=O)OCC)C(=O)OCC`, the melting point stood at 72 °C.

`N#CC1(c2cccc(OCc3ccc4ccc(F)cc4c3)c2)CCOCC1` had a melting point of 106 to 107 °C.

In turn, `CCOC(=O)Nc1c([N+](=O)[O-])cc(C)c(C)c1[N+](=O)[O-]` registered a melting point of 51 to 54 °C.

Regarding `CC1(C)COc2ccc(C(F)(F)F)cc2C(O)(c2ccccn2)C1` (centres undefined), the melting point was determined as 116 °C.

`CCOc1ccc2c(c1)n(C1CCCCC1)c(=O)n2Cc1ccc(NC(=O)N(CC)CC)cc1OC` yielded a melting point of 158 °C.

Regarding `CC(C)c1cccc(C(C)C)c1NC(=O)CN1CCN(CCSc2nc3cccc(S(C)(=O)=O)c3o2)CC1`, the melting point is 125 to 128 °C.

Molecule `FC(F)(F)c1ccc(-n2nc(N3CCN(CC4CC4)CC3)c3ccccc32)cc1` displayed a melting point of 98 to 100 °C.

Turning to `CCS(=O)c1ccc(-c2nc(-c3ccc(F)cc3)c(-c3ccncc3)[nH]2)cc1` (centres undefined), the melting point is 240 °C.

`CCOC(=O)c1ccc(-c2nc(CCl)c(C)o2)o1` gave a melting point of 117 to 118 °C.

Molecule `CCOc1nc(C(F)(F)F)cc(=O)n1-c1cc(OC(C)C)c(Br)cc1F` returned a melting point of 106 to 108 °C.

With `N#Cc1cc(-c2ccoc2)c2ccc(Sc3cccc(-c4ccccc4)n3)cc2c1`, the melting point is 143 to 146 °C.

Molecule `O=C1NCCc2c(CCc3ccccc3)[nH]c3cccc1c23` displayed a melting point of 207 to 208 °C.

On to `COc1ccc(Cl)c(NC(=S)N(CCN2C(=O)c3ccccc3C2=O)OCc2ccccc2)c1Cl`, for which the melting point was in the range of 175 to 176 °C.

In turn, `CCNc1ccc(C#N)cc1[N+](=O)[O-]` gave a melting point of 130 to 132 °C.

In turn, `Clc1cccc2c1CSCCCN2` had a melting point of 71 to 73 °C.

As to `CC(=O)N(c1ccc(F)c(Cl)c1)c1ncnc2cc(OCCCN3CCOCC3)c([N+](=O)[O-])cc12`, the melting point was 154 °C.

`c1ccc2c(c1)CC1(CCNCC1)O2` displayed a melting point of 56 to 58.5 °C.

Molecule `CC(=C1SC(=O)NC1=O)c1ccc(OCCOc2c(-c3ccc(Cl)cc3)n(C)c3ccccc3c2=O)cc1` returned a melting point of 238 to 240 °C.

`O=C(C=Cc1ccccn1)c1ccc(OCc2ccccc2)cc1` had a melting point of 131 to 134 °C.

In turn, `Cc1ccn2ncc(C(=O)NC3CN4CCC3CC4)c2c1` (centres undefined) displayed a melting point of 100 to 102 °C.

Molecule `Cc1cc(O)c(I)cc1C(=O)O` returned a melting point of 143 to 150 °C.

`Cc1ccc(C(O)CCN(C)C)s1` (centres undefined): the melting point fell in the range of 66.5 to 68 °C.

In the case of `CCCCCn1nc(-c2cccc(C(F)(F)F)c2F)c(=O)c2cccc(OC)c21`, the melting point lay within 82 to 84 °C.

Molecule `CCNC(=O)c1c(Cl)ccc(Br)c1[Si](C)(C)C` returned a melting point of 155 to 157 °C.

In the case of `CNc1nc(Cl)ncc1[N+](=O)[O-]`, the melting point was 90 to 91 °C.

As to `CCOP(=O)(COc1ccc2c(c1)[nH]c1ccccc12)OCC`, the melting point came out at 159 °C.

`COCCOc1cc(N(C)S(=O)(=O)c2nccn2C)c2[nH]c(C(=O)O)cc2c1` showed a melting point of 174 to 175 °C.

Molecule `COC(=O)c1c(N)ncn1C1c2ccsc2CC1(C)C` (centres undefined) returned a melting point of 161 to 162 °C.

The molecule `CC(C)(CNS(C)(=O)=O)Nc1nc(Cl)ncc1Cl` had a melting point of 156 to 158 °C.

Turning to `O=C(O)Cn1cc(Cc2nc3c(F)c(F)cc(F)c3s2)c2ccc(Cl)cc21`, the melting point was 194 to 195 °C.

On to `CCN1CCN(Cc2ccc3c(c2)Cc2c(-c4cccs4)n[nH]c2-3)CC1`, for which the melting point worked out at 170 °C.

Molecule `C=C1CC2C(CCC3(C)C(OC(C)=O)CCC23)C2(C)CCC(=O)C=C12` (centres undefined) had a melting point of 138 to 140 °C.

For the molecule `O=C(O)COC1c2ccccc2COc2ccc(OCc3ccc4cc(Cl)ccc4n3)cc21` (centres undefined), the melting point was 179 to 180 °C.

The molecule `CCn1cc(C=CC(=O)NC2CCNC(=O)C2)nc1-c1ccccc1` (centres undefined) had a melting point of 270 to 272 °C.
